Results from ChEMBL document CHEMBL4811228, “Design, Synthesis, and Activity Evaluation of Novel Acyclic Nucleosides as Potential Anticancer Agents In Vitro and In Vivo” (J Med Chem, 2021).
Calls of active or inactive are those of the source. The rule behind the calls is not given here.

Assays:
SW480 [1] = assay: Induction of mitochondrial membrane potential loss in human SW480 cells assessed as increase in cells with low MMP emitting green fluorescence at 2 to 8 uM incubated for 24 hrs by JC-1 staining based fluorescence microscopy; assay type: functional, cell-based; settings: dose 2-8 µM
SW480 [2] = assay: Antitumor activity against human SW480 cells xenografted in ip dosed BALB/c mouse assessed as reduction in tumor weight administered every 2 days for 12 days; assay type: functional, organism-based; settings: dose 25-50 mg/kg, time 12.0 day
[3] = Acute toxicity in BALB/c mouse assessed as animal survival at 300 mg/kg, ip administered per 4 hrs for 4 times and measured everyday for 14 days (reference value: 100%); assay type: organism-based; settings: in vivo, time 14 day
SW480 [4] = assay: Induction of apoptosis in human SW480 cells assessed as late apoptotic cells at 16 uM incubated for 48 hrs by Annexin V-FITC/PI staining based flow cytometry (reference value: 4.67%); assay type: functional
SW480 [5] = assay: Induction of mitochondrial membrane potential loss in human SW480 cells assessed as cells with low MMP emitting green fluorescence at 8 uM incubated for 24 hrs by JC-1 staining based flow cytometry (reference value: 17.96%); assay type: functional
[6] = Half life in human liver microsomes at 0.1 uM preincubated for 10 mins followed by NADPH addition and measured up to 60 mins by LC-MS/MS analysis; assay type: ADME, Microsome; settings: time 70 min
SW480 [7] = assay: Antiproliferative activity against human SW480 cells assessed as reduction in cell viability incubated for 48 hrs by MTT assay; assay type: functional, cell-based; settings: SW480, 48 h
SW480 [8] = assay: Antitumor activity against human SW480 cells xenografted in BALB/c mouse assessed as reduction in tumor necrosis at 25 to 50 mg/kg, ip administered every 2 days for 12 days by hematoxyin-eosin staining based analysis; assay type: functional, organism-based; settings: dose 25-50 mg/kg, time 12.0 day
SW480 [9] = assay: Induction of apoptosis in human SW480 cells assessed as viable cells at 4 uM incubated for 48 hrs by Annexin V-FITC/PI staining based flow cytometry (reference value: 90.56%); assay type: functional; settings: read-out: Activity
HCT-116 [10] = assay: Potency index, ratio of 5-FU IC50 to test compound IC50 for antiproliferative activity against human HCT-116 cells; assay type: functional
SW480 [11] = assay: Induction of apoptosis in human SW480 cells assessed as increase in cleaved PARP protein expression at 2 to 16 uM incubated for 48 hrs by western blot analysis; assay type: functional, cell-based; settings: dose 2-16 µM
SW480 [12] = assay: Induction of apoptosis in human SW480 cells assessed as viable cells at 8 uM incubated for 48 hrs by Annexin V-FITC/PI staining based flow cytometry (reference value: 90.56%); assay type: functional; settings: read-out: Activity
SW480 [13] = assay: Induction of mitochondrial membrane potential loss in human SW480 cells assessed as cells with high MMP emitting red fluorescence at 4 uM incubated for 24 hrs by JC-1 staining based flow cytometry (reference value: 64.2%); assay type: functional
[14] = Acute toxicity in BALB/c mouse assessed as animal survival at 150 mg/kg, ip administered per 4 hrs for 4 times and measured everyday for 14 days (Rb =100%); assay type: organism-based; settings: in vivo, time 14 day
SW480 [15] = assay: Induction of apoptosis in human SW480 cells assessed as necrotic cells at 2 uM incubated for 48 hrs by Annexin V-FITC/PI staining based flow cytometry (reference value: 2.9%); assay type: functional
SW480 [16] = assay: Potency index, ratio of 5-FU IC50 to test compound IC50 for antiproliferative activity against human SW480 cells; assay type: functional
SW480 [17] = assay: Induction of mitochondrial membrane potential loss in human SW480 cells assessed as cells with high MMP emitting red fluorescence at 2 uM incubated for 24 hrs by JC-1 staining based flow cytometry (reference value: 64.2%); assay type: functional
SW480 [18] = assay: Induction of apoptosis in human SW480 cells assessed as late apoptotic cells at 8 uM incubated for 48 hrs by Annexin V-FITC/PI staining based flow cytometry (reference value: 4.67%); assay type: functional
HCT-116 [19] = assay: Inhibition of colony formation in human HCT-116 cells at >=16 uM incubated for 48 hrs followed by culture medium replenishment for every 72 hrs and measured after 14 days by crystal violet staining based analysis; assay type: functional; settings: dose microM >=16; time 14 day
SW480 [20] = assay: Induction of apoptosis in human SW480 cells assessed as necrotic cells at 8 uM incubated for 48 hrs by Annexin V-FITC/PI staining based flow cytometry (reference value: 2.9%); assay type: functional
SW480 [21] = assay: Induction of mitochondrial membrane potential loss in human SW480 cells assessed as cells with low MMP emitting green fluorescence at 4 uM incubated for 24 hrs by JC-1 staining based flow cytometry (reference value: 17.96%); assay type: functional
SW480 [22] = assay: Induction of apoptosis in human SW480 cells assessed as late apoptotic cells at 32 uM incubated for 48 hrs by Annexin V-FITC/PI staining based flow cytometry (reference value: 4.67%); assay type: functional
SW480 [23] = assay: Induction of apoptosis in human SW480 cells at 4 to 8 uM pretreated with pan-caspase inhibitor, Q-VD-OPh followed by incubation with compound for 48 hrs by Annexin V-FITC/PI staining based flow cytometry; assay type: functional, cell-based; settings: dose 4-8 µM
SW480 [24] = assay: Induction of apoptosis in human SW480 cells assessed as early apoptotic cells at 16 uM incubated for 48 hrs by Annexin V-FITC/PI staining based flow cytometry (reference value: 1.87%); assay type: functional
HCT-116 [25] = assay: Induction of cell cycle arrest in human HCT-116 cells assessed as accumulation at G0/G1 phase at 16 uM incubated for 24 hrs by propidium iodide staining based flow cytometry; assay type: functional
SW480 [26] = assay: Induction of apoptosis in human SW480 cells assessed as necrotic cells at 32 uM incubated for 48 hrs by Annexin V-FITC/PI staining based flow cytometry (reference value: 2.9%); assay type: functional
HCT-116 [27] = assay: Antiproliferative activity against human HCT-116 cells assessed as reduction in cell viability incubated for 48 hrs by MTT assay; assay type: functional, cell-based; settings: HCT-116, 48 h
SW480 [28] = assay: Induction of apoptosis in human SW480 cells assessed as viable cells at 2 uM incubated for 48 hrs by Annexin V-FITC/PI staining based flow cytometry (reference value: 90.56%); assay type: functional; settings: read-out: Activity
SW480 [29] = assay: Induction of apoptosis in human SW480 cells assessed as early apoptotic cells at 2 uM incubated for 48 hrs by Annexin V-FITC/PI staining based flow cytometry (reference value: 1.87%); assay type: functional
SW480 [30] = assay: Inhibition of colony formation in human SW480 cells at >=16 uM incubated for 48 hrs followed by culture medium replenishment for every 72 hrs and measured after 14 days by crystal violet staining based analysis; assay type: functional; settings: dose microM >=16; time 14 day
SW480 [31] = assay: Induction of apoptosis in human SW480 cells assessed as necrotic cells at 16 uM incubated for 48 hrs by Annexin V-FITC/PI staining based flow cytometry (reference value: 2.9%); assay type: functional
SW480 [32] = assay: Antitumor activity against human SW480 cells xenografted in ip dosed BALB/c mouse assessed as reduction in tumor volume administered every 2 days for 12 days; assay type: functional, organism-based; settings: dose 25-50 mg/kg, time 12.0 day
[33] = Acute toxicity in BALB/c mouse assessed as animal survival at 100 mg/kg, ip administered per 4 hrs for 4 times and measured everyday for 14 days (Rb =100%); assay type: organism-based; settings: in vivo, time 14 day
SW480 [34] = assay: Induction of mitochondrial membrane potential loss in human SW480 cells assessed as cells with high MMP emitting red fluorescence at 8 uM incubated for 24 hrs by JC-1 staining based flow cytometry (reference value: 64.2%); assay type: functional

SMILES: CCCCCCCCCC(CCO)n1cnc2c(Cl)ncnc21 (racemic)
- Activity (SW480 [1]): Active
- Activity (SW480 [2]): Dose-Dependent Effect
- survival at 336 h [3]: 0%
- Activity (SW480 [4]): 20.5%
- Activity (SW480 [5]): 36.6%
- half-life at 0.1 µM [6]: 10.8 min
- IC50 (SW480 [7]): 1150 nM
- Activity (SW480 [8]): Active
- viability at 4 µM (SW480 [9]): 71.5%
- Ratio IC50 (HCT-116 [10]): 10
- Activity (SW480 [11]): Active
- viability at 8 µM (SW480 [12]): 56.5%
- Activity (SW480 [13]): 33.67%
- survival at 336 h [14]: 100%
- Activity (SW480 [15]): 9.2%
- Ratio IC50 (SW480 [16]): 10
- Activity (SW480 [17]): 47.58%
- Activity (SW480 [18]): 15.47%
- inhibition (INH) (HCT-116 [19]): 100%
- Activity (SW480 [20]): 16.97%
- Activity (SW480 [21]): 33.02%
- Activity (SW480 [22]): 13.76%
- Activity (SW480 [23]): Active
- Activity (SW480 [24]): 24.5%
- Activity (HCT-116 [25]): Active
- Activity (SW480 [26]): 3.89%
- IC50 (HCT-116 [27]): 890 nM
- viability at 2 µM (SW480 [28]): 73.9%
- Activity (SW480 [29]): 5.2%
- inhibition (INH) (SW480 [30]): 100%
- Activity (SW480 [31]): 11.01%
- Activity (SW480 [32]): Dose-Dependent Effect
- survival at 336 h [33]: 100%
- Activity (SW480 [34]): 31.56%
